Reference: patent US20220259164A1, “USE OF AMINOTHIOL COMPOUNDS AS CEREBRAL NERVE OR HEART PROTECTIVE AGENT” (SHANGHAI KECHOW PHARMA, INC., priority 2019, published 2022)
Where “and” joins values, the source holds several entries; their conditions need not be identical. Equal values may be shown once. Where a SMILES comes first, the peptide text is derived from it. [ ]: non-standard residue; d: D form. NMeC = CN[C@@H](CS)C(=O)O

How the values were obtained:
Assay type in all cases: in vivo
[1] = tested on: rat myocardial infarction model (coronary ligation 30 min, reperfusion); assay: Myocardial infarction model: myocardial infarction range (TTC staining); conditions: for Infarction range (%): x ± s, n = 10; for Improvement rate (%) of myocardial infarction range: compared with model group
Procedure: 1. The rats were grouped and administered according to the following methods (2) Compound B (i.v.) at 100 mg/kg (3) Compound A (i.v.) at 100 mg/kg (4) Compound A (oral) at 500 mg/kg (5) Isosorbide mononitrate injection (i.v.) at 1 mg/kg (equivalent to clinical equivalent dose). There were 10 rats in each group, and the rats were administered intravenously immediately after 30 min of ischemia and reperfusion, i.v. 10% 1 min+i.v. drip 90% 30 min. The administration volume was 2 ml/rat. Compound A (oral) at 500 mg/kg was administered intragastrically 2 h after reperfusion when the animal was awake, and the administration volume was 10 ml/kg. Note: Compounds A and B used in this example were in the form of hydrochloride salts thereof. Given intraperitoneal injection of 3% sodium pentobarbital at 60 mg/kg for general anesthesia, the rats were fixed on an operating table in the supine position. The surgical field of the anterolateral chest was depilated and routinely disinfected. The skin and muscular layer were cut open, purse-string suture was performed on the muscular layer, the chest was opened on the left at the fourth intercostal space, and the heart was pulled out with a ring-shaped retractor. At the position of the anterior descending coronary artery 3-4 mm below the left atrial appendage, a 6/0 damage-free silk thread was threaded, and a nylon thread with a diameter of 1.6 mm was juxtaposed and ligated together with the anterior descending coronary artery, while the other end was left outside the body for later use. The heart was placed back into the chest cavity, the air in the chest cavity was emptied, and the chest cavity was closed. 30 min after ligation, the nylon thread was carefully removed for reperfusion. Compared with the normal lead II electrocardiogram (ECG-II), ST segment elevation in ECG-II by 0.1 mV or more 30 min after coronary artery ligation was regarded as successful ischemia.

[2] = tested on: radiation-induced hematopoietic system injury in C57 male mice; assay: Protective effect on radiation-induced hematopoietic system injury (peripheral blood indicators); conditions: 517 mpk i.p. 30 min before 4 Gy whole body irradiation; day 15
Procedure: C57 male mice were randomly divided into 6 groups, namely a blank control group, an irradiation group, a compound B (TFA) group, an AMI group, a compound B (TFA) irradiation group, and an AMI irradiation group, respectively. The mode of administration for each group was an intraperitoneal injection, 30 min before irradiation. The dosage of administration was 517 mpk, and the whole body irradiation dose was 4 Gy. On day 15, samples were taken for detecting peripheral blood indicators.

[3] = tested on: SD rat cerebral ischemia reperfusion injury model (MCAO); assay: Neurobehavioral evaluation (5-point Longa/Bederson score) in rat ischemic stroke model (MCAO); set-up: key to Neurological function score After modeling: Longa/Bederson 5-point scale (0-4); higher = more severe deficit; conditions: for Neurological function score After modeling: individual rats
Excerpt: Healthy male SPF grade SD rats (body weight 250-300 g) were selected. […] (2) A midline neck incision was made to expose the right common carotid artery, internal carotid artery and external carotid artery. A 6-0 silk thread was used to ligate the distal end of the external carotid artery at 4 mm from the bifurcation of the common carotid artery, another 6-0 silk thread was inserted at the external carotid artery, and a slipknot was tied near the bifurcation of the common carotid artery. (3) An arterial clamp was used to clamp the common carotid artery. […] (4) The thread embolism was removed 90 min after ischemia, the proximal end of the external artery was ligated with a 6-0 silk thread, the neck wound was sutured with a 3-0 silk thread, the wound was disinfected with povidone iodine, the rats were placed on a heating pad, and after being awake, they were placed in a constant temperature rearing box for rearing. […] The experimental animals were scored for signs of neurological function deficit before and after modeling. The scoring standard was given by reference to the 5-point system of Longa and Bederson. The scoring was performed 24 h after the animals were awake from anesthesia. The higher the score, the more severe the behavioral disorder of the animals. 0 point: No nerve damage symptoms […] Inability to fully extend the contralateral front paw […] Turning in a circle to the opposite side […] Falling over to the opposite side 4 points: Inability to walk spontaneously, and loss of consciousness In a manner same as in Example 1, experimental animals were selected, except that the experiment was divided into seven groups (i.e., groups […], and G, among which groups C, D, and E were given different dosages of administration from Example 1, group F was given edaravone, and group G was given amifostine).

[4] = tested on: radiation intestinal injury in C57 male mice; assay: Protective effect on radiation intestinal injury (HE staining of small intestine); conditions: 517 mpk i.p. 30 min before 16 Gy abdominal irradiation; fifth day
Procedure: (§1) C57 male mice were randomly divided into 4 groups, namely a blank control group, an irradiation group, a compound B (TFA) irradiation group, and an AMI irradiation group, respectively. The mode of administration for each group was an intraperitoneal injection, 30 min before irradiation. The dosage of administration was 517 mpk, and the abdominal irradiation dose was 16 Gy. On the fifth day, the small intestine tissue was taken for HE staining.

[5] = tested on: radiation lung injury in C57 male mice; assay: Protective effect on radiation lung injury (HE staining of lung); conditions: 517 mpk i.p. 30 min before 17 Gy right lung irradiation; months 2, 4, 6
Procedure: as §1, with “the” for “the abdominal”, “dose to the right lung” for “dose”, “17” for “16”, “[…] Lung tissues were taken at months 2, 4, and 6 for HE staining” for “staining.”

[6] = Example 2 group C: compound B (trifluoroacetate) 100 mg/kg i.p. 5 min before reperfusion, 100 mg/kg
[7] = Example 2 group D: compound A (trifluoroacetate) 400 mg/kg p.o. 2.5 h before reperfusion, 400 mg/kg
[8] = Example 2 group E: compound A (trifluoroacetate) 800 mg/kg p.o. 2.5 h before reperfusion, 800 mg/kg

CNC(=O)[C@H](CS)NC(=O)[C@H](CS)NC(=O)[C@H](CS)NC [Compound B, (R)-3-mercapto-N—((R)-3-mercapto-1-(((R)-3-mercapto-1-(methylamino)-1-oxoprop-2-yl)amino)-1-oxoprop-2-yl)-2-(methylamino)propionamide] (H-[NMeC]-Cys-Cys-NHMe)
Infarction range (%) ([1]; compound B (hydrochloride) i.v. 100 mg/kg after 30 min ischemia and reperfusion): 30.2 ± 8.2 % | Improvement rate (%) of myocardial infarction range ([1]; compound B (hydrochloride) i.v. 100 mg/kg): 25.2% | LY % and NE % in the peripheral blood (abnormal differentiation) [2]: could alleviate this abnormal differentiation | Numbers of WBC, RBC and PLT in the peripheral blood [2]: could increase the numbers of such cells after irradiation | % Behavioral improvement ([3]; Example 1 group C: compound B (trifluoroacetate) 200 mg/kg i.p. 5 min before reperfusion, 200 mg/kg): 66.7% | Neurological function score After modeling ([3]; Example 1 group C: compound B (trifluoroacetate) 200 mg/kg i.p. 5 min before reperfusion, 24 h, 200 mg/kg): 0 and 1 (3×) and 2 | % Behavioral improvement ([3]; Example 1 group D: compound B (trifluoroacetate) 200 mg/kg i.p. during ischemia and 200 mg/kg i.p. 5 min before reperfusion): 66.7% | Neurological function score After modeling ([3]; Example 1 group D: compound B (trifluoroacetate) 200 mg/kg i.p. during ischemia and 200 mg/kg i.p. 5 min before reperfusion, 24 h): 1 | % Behavioral improvement [3, 6]: 29.32% | Neurological function score After modeling [3, 6]: 1 and 2 (4×) and 3 | Changes in the intestinal villi structure (HE staining) [4]: milder than that in the irradiation group | Inflammatory cell infiltration / radiation pneumonitis in lung (HE staining) [5]: could partially relieve the inflammatory cell infiltration and reduce the occurrence of radiation pneumonitis

CNC(=O)[C@H](CS)NC(=O)[C@H](CS)NC [Compound A, (R)-3-mercapto-N—((R)-3-mercapto-1-(methylamino)-1-oxoprop-2-yl)-2-(methylamino)propionamide] (H-[NMeC]-Cys-NHMe)
Infarction range (%) ([1]; compound A (hydrochloride) i.v. 100 mg/kg after 30 min ischemia and reperfusion): 30.5 ± 11 % | Improvement rate (%) of myocardial infarction range ([1]; compound A (hydrochloride) i.v. 100 mg/kg): 24.5% | Infarction range (%) ([1]; compound A (hydrochloride) oral 500 mg/kg 2 h after reperfusion): 28.9 ± 12.2 % | Improvement rate (%) of myocardial infarction range ([1]; compound A (hydrochloride) oral 500 mg/kg): 28.5% | % Behavioral improvement ([3]; Example 1 group E: compound A (trifluoroacetate) 1600 mg/kg p.o. 2.5 h before reperfusion, 1600 mg/kg): 77.8% | Neurological function score After modeling ([3]; Example 1 group E: compound A (trifluoroacetate) 1600 mg/kg p.o. 2.5 h before reperfusion, 24 h, 1600 mg/kg): 1 (2×) and 0 | % Behavioral improvement [3, 7]: 46.99% | Neurological function score After modeling [3, 7]: 2 (3×) and 1 (3×) | % Behavioral improvement [3, 8]: 59.01% | Neurological function score After modeling [3, 8]: 1 (5×) and 2
